Here are results for three compounds from US20250154468A1, “METHOD FOR INDUCING DEDIFFERENTIATION OF ADIPOCYTES” (City University of Hong Kong, priority 2023, published 2025).

Structures are written as SMILES.

Assay type in all cases: cell-based, mouse
For series [1], the system named is VDAC and NDUFA9 in the EVs of 3T3-L1 adipocytes. Nature of the series: Immunoblot of mitochondrial proteins in EVs of 3T3-L1 adipocytes. On the procedure:
To obtain lysates, cells were washed twice with cold PBS and lysed with 1 mL of RIPA buffer (Beyotime, product no. P0013B) at 4° C. for 1 hour with gentle rotation. The lysate was subsequently centrifuged at 12,000 g for 20 min at 4° C., and the resulting supernatant was quantified the protein concentration. Protein extracts were then separated by SDS-PAGE and transferred onto a NC membrane (Bio-Rad, product no. 1620112). The membranes were incubated overnight at 4° C. with antibodies against VDAC (CST, product no. 4866s, 1:1000), NDUFA9 (Abcam, product no. ab14713, 1:1000), CD81(Santa Cruz, product no. sc-166029, 1:1000), Non-phospho (Active) β-Catenin (CST, product no. 8814, 1:2000), β-Catenin (CST, product no. 9562, 1:1000) and 3-actin (Santa Cruz, product no. sc-47778, 1:1000). Following incubation with the appropriate secondary antibody (Abcam, product no. ab205719; Thermo Fisher, product no. 31460, 1:4000), the protein bands were visualized using an enhanced chemiluminescence (ECL) kit (Bio-Rad, product no. 170-5061) and captured using a Bio-red ChemiDoc. […]
The 3T3-L1 adipocytes were treated by isotonic and hypertonic medium. […] The resuspended suspensions contain approximately 80 μg protein each as determined by DC protein assay (Bio-Rad, product no. 5000114). […]
On the technique in general: Immunoblotting shows a protein as a band on a membrane.

Series [2] deals with mitochondria in adipocytes. Briefly: MitoTracker Green (MTG) staining of mitochondria. The following applies: pyruvic acid (1 mM) added to the hypertonic treatment. The procedure:
Hypertonicity is known to disrupt the ionic homeostasis of cells and reduce the electronic potential in mitochondria, consequentially inhibiting ATP production.
To stain cells with MitoTracker (CST, product no. FM 9074), the 1 mM stock solution should be diluted directly into normal growth media to achieve a staining concentration ranging from 400 nM. The live cells were incubated for 15 minutes at 37° C. Following incubation, live imaging is necessary to visualize the staining pattern within the cells.
To mitigate mitochondrial stress, adipocytes were treated with 1 mM pyruvic acid (Sigma-Aldrich, product no. 107360) in hypertonic cultures. An equivalent volume of DMSO was added to the control samples. Following the treatment, the cells were either subjected to MTG staining or the supernatants were collected for EV isolation and analysis.

In series [3] the test system is TNF-α, IL-6, RIP1, CEBPA, and MCP-1. Nature of the series: RT-qPCR of inflammatory genes in 3T3-L1 adipocytes. The procedure: To validate this, MEVs were isolated from the hypertonic treatment of 3T3-L1 adipocytes and subsequently applied to naïve 3T3-L1 adipocytes cultured in isotonic conditions (FIG. 6A).
(§1) Total RNA was isolated using the RNA Extraction Kit (Takara, product no. 9767) in accordance with the manufacturer's recommended protocol. The first-strand cDNA was synthesized using the PrimeScript RT Reagent Kit (Takara, product no. RR047A) for RT-PCR. In brief, a 10 μl system containing 2 μl of 5× PrimeScript RT Master Mix (Perfect Real Time) and RNase-Free Distilled Water and RNA solution, with a total RNA amount of 500 ng, was transferred to the ABI ProFlex PCR System (2×96-well) to perform reverse transcription. RT-PCR was then conducted using the Ex-Taq PCR kit (Takara, product no. RR820A) following the manufacturer's instructions. All RT-qPCR primer sequences were included in Table 2.
For orientation: In qPCR the cycle at which signal appears reflects the starting amount.

Series [4] has as its system 3T3-L1 adipocytes. Nature of the series: Loss of lipid droplets and morphological changes of 3T3-L1 adipocytes. Also noted: loss of lipid droplets: dose or concentration left out as unconfirmed. On the procedure: 3T3-L1 (ATCC CL-173) cells were cultured in DMEM medium (Thermo Fisher, product no. 11965126) containing 10% FBS, 2 mM L-glutamine and […] of penicillin-streptomycin (Thermo Fisher).
1.25×10^5 3T3-L1 were seeded in 6-well dishes and cultured at 37° C. and 5% CO2. The 10 μg/ml insulin (MedChemExpress, product no. HY-P0035), 1 μM dexamethasone (MedChemExpress, product no. HY-14648), 0.5 mM 3-isobutyl-1-methylxanthine (IBMX) (MedChemExpress, product no. HY-12318) and 2 μM rosiglitazone (Sigma, product no. R2408-10MG) (Differentiation medium) were supplemented in culture medium to constitute the differentiation medium for 2 days. Differentiation to SVF was induced by differentiation medium. The SVF cells were incubated for 5 days with differentiation medium. The medium was then changed to DMEM containing 10% FBS, 1×P/S, and 10 μg/ml insulin for 48 h, followed by changing to the culture medium.
[…] […] HY-Y0873), and maintained at 37° C. and 5% CO2. The medium was changed every 3 days, being careful to avoid shaking the dish to allow the hypertonic medium to diffuse slowly in the culture dish.

A further series has as its system SVF adipocytes. Briefly: Loss of lipid droplets and morphological changes of SVF-derived adipocytes. The arrangement: loss of lipid droplets: dose or concentration left out as unconfirmed. On the procedure:
C57BL/6J mice were used for the present invention and maintained in a 12:12 h light-dark cycle. All mouse experiments were performed in accordance with the protocol approved by the Institutional Animal Research Ethics Sub-Committee of City University of Hong Kong and Department of Health, The Government of The Hong Kong Special Administrative Region. 6 to 8-week-old female were anesthetized with 4% of isoflurane by inhalation, and then inguinal, retroperitoneal WAT were removed. The tissues were shredded after washing in sterile PBS. Afterwards, the tissue pieces were incubated in type II collagenase (Sigma, product no. C6885) for 1 h at 37° C. before passed through a sterile 100 μm filter. SVF was obtained after 5 min centrifugation at 1000 rpm. Culture medium (DMEM supplemented with 10% FBS and 1% penicillin-streptomycin (all obtained from Thermo Fisher) was added to resuspend the cells, followed by culturing in 100 mm culture dishes. The following day, the culture medium was changed to remove the dead and non-adherent cells.
1.25×10^5 3T3-L1 were seeded in 6-well dishes and cultured at 37° C. and 5% CO2. […]

The test system of a further series is adipocytes. Nature of the series: Oil Red O staining of adipocytes. Particulars: BML-284 treatment. The procedure: Adipocytes were stained with Oil red O staining kit (Solarbio, product no. G1262) solution to detect the lipid droplets according to manufacturer's instructions. Specifically, cells were fixed with 10% formalin for 20 min at room temperature, followed by washing with 60% isopropanol for 5 min. Subsequently, staining was conducted with ORO solution for 20 min at room temperature to enable binding of the dye to the lipid droplets. Finally, the cells were washed with distilled water to eliminate any residual dye.

For series [5], the system named is C/EBPβ, PPAR-γ, and adiponectin. Nature of the series: RT-qPCR of adipogenic markers in 3T3-L1 adipocytes. Particulars: BML-284 treated cells. The procedure:
as §1

For the next series, the system named is Smad 9, Esrrb, and Sox2. Nature of the series: RT-qPCR of multipotency / stem cell marker genes in adipocytes. The following applies: BML-284 treated cells. On the procedure: as §1
The subject of another series is CD13 and Endoglin. Briefly: Immunostaining of surface markers of dedifferentiated adipocytes. Particulars: BML-284 treated cells. The procedure: Twelve hours before the experiment, cells were seeded onto cover slips in 12-well dishes and cultured overnight at 37° C. and […]. Cells were fixed with […] for 10 min at 4° C. Next, the cells were either directly incubated with 1% BSA/PBS for 1 h or first permeabilized with 0.1% Triton X-100/PBS for 10 min at 4° C. before blocking with 1% BSA/PBS. Subsequently, CD13 primary antibody (Santa Cruz, product no. sc-13536 1:100) or Endoglin primary antibody (Santa Cruz, product no. sc-18838 1:100) was incubated with cells overnight at 4° C. Following 3 times washing in 0.5% tween/PBS, cells were incubated with secondary antibody (CST, product no. 8890S) in 1% BSA/PBS (1:400) in darkness for 1.5 hours at room temperature. After further washing, cells were mounted with DAPI (Thermo Fisher, product no. 62247) and examined with a Nikon A1HD25 confocal microscope.

Series [6] concerns 3T3-L1 adipocytes. Nature of the series: Osteogenic re-differentiation of treated 3T3-L1 adipocytes. The following applies: BML-284-treated adipocytes. On the procedure:
The osteogenic and chondrogenic re-differentiation capacities of dedifferentiated adipocytes were also examined. To induce osteogenic differentiation, 1×10^6 cells were seeded in 6-well plates and incubated overnight at 37° C. and 5% CO2. The culture medium was then replaced with StemPro Osteogenesis Differentiation medium (Thermo Fisher, product no. A1007201) and cells were maintained in this medium for up to 14 days, with medium renewal every 3 days. This medium contains specific factors that promote differentiation towards the osteogenic lineage, allowing the cells to deposit mineralized extracellular matrix and express osteogenic markers.
Alkaline phosphatase (ALP) staining was conducted on Day 9 of the feeder cell-mediated reprogramming process, following the manufacturer's instructions for the Alkaline Phosphatase Detection Kit (Sigma, product no. SCR004). The staining was performed to detect the activity of ALP, a marker of pluripotency, and to assess the success of the reprogramming process.
Total RNA was isolated using the RNA Extraction Kit (Takara, product no. 9767) in accordance with the manufacturer's recommended protocol. The first-strand cDNA was synthesized using the PrimeScript RT Reagent Kit (Takara, product no. RR047A) for RT-PCR. […]

Series [7] concerns 3T3-L1 adipocytes. Nature of the series: Chondrogenic re-differentiation of treated 3T3-L1 adipocytes. Particulars: BML-284-treated adipocytes.
In series [8] the test system is 3T3-L1 adipocytes. Nature of the series: AnnexinV-FITC/PI staining, apoptosis of adipocytes. The following applies: comparison of BML-284 and hypertonic treatment. On the procedure:
The hypertonic dedifferentiation of adipocytes typically requires up to 7 days of culture in 2% PEG-300. Considering that TNF-α is recognized as a proinflammatory cytokine capable of inducing adipocyte apoptosis, an evaluation of the apoptotic status of adipocytes was carried out using AnnexinV-FITC/PI staining. […] It was concluded that the extended hypertonic treatment could lead to apoptosis alongside the dedifferentiation of adipocytes.

`O=C(/C=C/c1ccc(/C=C/C(=O)Nc2ccc(C3=NCCN3)cc2)cc1)Nc1ccc(C2=NCCN2)cc1` [GW4869]: the “EVs level of NDUFA9 induced by hypertonic treatments” value in [1] (10 μM GW4869, vs DMSO) is given as “substantially inhibited”.

For the compound `CC(=O)C(=O)O` [pyruvic acid], the “MTG staining of mitochondria in adipocytes” value in series [2] is “effectively restored”. The “levels of mitochondrial proteins VDAC and NDUFA9 in the EVs” value in series [1] (pyruvic acid 1 mM in hypertonic culture) was “reduced”. The “induction of TNF-α expression by hypertonic EVs” value in series [3] (EVs from hypertonic culture with pyruvic acid) is “prevented”. Further, in [3] (pyruvic acid added to the hypertonic culture, 2 hours), the “induction of TNF-α and IL-6 expression in hypertonic culture” value is listed as “abolished”.

Consider `COc1cccc(-c2cc(NCc3ccc4c(c3)OCO4)nc(N)n2)c1` [BML-284, 2-amino-4-(3,4-(methylenedioxy)benzylamino)-6-(3-methoxyphenyl)pyrimidine], for which the “loss of lipid droplets” value is on record as 40% with 3T3-L1 adipocytes [4] (3T3-L1 adipocytes, isotonic culture, 4 days) and 80% in the series with SVF adipocytes (SVF adipocytes, isotonic culture, 4 days). The “cells with elongated morphology” value with 3T3-L1 adipocytes [4] (BML-284-treated 3T3-L1 adipocytes) and with SVF adipocytes (BML-284-treated SVF adipocytes) was “significant increases” in each case. Moreover, the Oil red staining entry in the series with adipocytes is on record as “decreased”. Moreover, the “expression of adipogenic genes (C/EBPβ, PPAR-γ, adiponectin)” value in [5] is recorded as “significant reductions”. Further, the “expression of marker genes of multipotency (Smad 9, Esrrb, Sox2)” value in the series on Smad 9, Esrrb, and Sox2 is on record as “significant increases”. For the same compound, the “expression of proteins of multipotency (CD13 and endoglin)” value in the series with CD13 and Endoglin was “significant increases”. Besides, the “expression of osteogenic markers after inducing treatment” value in the series on 3T3-L1 adipocytes [6] is reported as “increased expression”. The “expression of chondrogenic markers after inducing treatment” value in the series with 3T3-L1 adipocytes [7] was “increased expression”. For the same compound, in the series on 3T3-L1 adipocytes [8], the “apoptosis in 3T3-L1 adipocytes” value is “did not lead to significant apoptosis”.
